Reference: ChEMBL document CHEMBL3751751, “Targeting quorum sensing by designing azoline derivatives to inhibit the N-hexanoyl homoserine lactone-receptor CviR: Synthesis as well as biological and theoretical evaluations” (Bioorg Med Chem, 2015)
Active and inactive are the calls of the source. The calls are words filed in the database; no cut-off is given here.

Key:
[1] = target: T1, CviR transcriptional regulator (Chromobacterium violaceum, UniProt D3W065); assay: Inhibition of CviR in Chromobacterium violaceum CV026 assessed as reduction of violacein production after 15 hrs
T1 sequence (D3W065 whole entry): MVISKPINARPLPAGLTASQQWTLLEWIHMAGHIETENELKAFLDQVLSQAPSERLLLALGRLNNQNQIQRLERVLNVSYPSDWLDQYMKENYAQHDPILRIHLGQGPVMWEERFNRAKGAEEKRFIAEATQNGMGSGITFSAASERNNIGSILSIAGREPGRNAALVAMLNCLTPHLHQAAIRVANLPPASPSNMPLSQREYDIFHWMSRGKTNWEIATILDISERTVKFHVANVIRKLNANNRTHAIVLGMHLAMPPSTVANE

[2] = target: T2, CviR transcriptional regulator (Chromobacterium violaceum) (UniProt D3W065); assay: Inhibition of CviR in Chromobacterium violaceum CV026 assessed as reduction of violacein production at 10 to 1000 uM after 15 hrs
T2 sequence (whole entry): T1 sequence (D3W065 whole entry)

[3] = target: T2, CviR transcriptional regulator (Chromobacterium violaceum); assay: Agonist activity at CviR in Chromobacterium violaceum CV026 assessed as induction of violacein production at 0.001 to 1000 uM after 15 hrs
[4] = target: T2, CviR transcriptional regulator (Chromobacterium violaceum); assay: Inhibition of CviR in Chromobacterium violaceum CV026 assessed as reduction of violacein production at 0.001 to 1000 uM after 15 hrs
[5] = target: T2, CviR transcriptional regulator (Chromobacterium violaceum); assay: Inhibition of CviR in Chromobacterium violaceum CV026 assessed as reduction of violacein production at 1000 uM after 15 hrs
[6] = target: T2, CviR transcriptional regulator (Chromobacterium violaceum); assay: Inhibition of CviR in Chromobacterium violaceum CV026 assessed as reduction of violacein production at 100 uM after 15 hrs
[7] = target: T2, CviR transcriptional regulator (Chromobacterium violaceum); assay: Inhibition of CviR in Chromobacterium violaceum CV026 assessed as reduction of violacein production at 1 nM after 15 hrs
[8] = system: Chromobacterium violaceum; assay: Bactericidal activity in Chromobacterium violaceum CV026 at 1000 uM; format: ADME, organism-based; settings: in vivo
[9] = target: T2, CviR transcriptional regulator (Chromobacterium violaceum); assay: Inhibition of CviR in Chromobacterium violaceum CV026 assessed as reduction of violacein production at 0.1 uM after 15 hrs
[10] = target: T2, CviR transcriptional regulator (Chromobacterium violaceum); assay: Inhibition of CviR in Chromobacterium violaceum CV026 assessed as reduction of violacein production at 100 nM after 15 hrs
[11] = system: Chromobacterium violaceum; assay: Bacteriostatic activity in Chromobacterium violaceum CV026 at 100 uM; format: ADME, organism-based; settings: in vivo
[12] = system: Chromobacterium violaceum; assay: Bactericidal activity in Chromobacterium violaceum CV026 at 1 mM; format: ADME, organism-based; settings: in vivo, 1000 µM

SMILES	Activity [3]	inhibition [4]	further results
O=C(COc1ccc(C2=NCCN2)cc1)Nc1ccccc1	inactive		IC50 [1]: 66.1 µM; inhibition [2]: Active
CCCCCC(=O)NC1CCOC1=O (stereo unspecified)	inactive		
O=C(NC1=NCCN1)c1ccccc1	inactive	inactive	
O=C(Cc1ccccc1)NC1=NCCS1	inactive		IC50 [1]: 670 µM; inhibition [5]: Active
O=C(NC1=NCCS1)c1ccccc1	inactive	inactive	
O=C(COc1ccc(C2=NCCN2)cc1)Nc1ccc(Cl)cc1	inactive		
CCCCCCCCCCCC(=O)NC1=NCCS1	inactive	inactive	
CCCCCCOc1ccc(C2=NCCN2)cc1	inactive		IC50 [1]: 90.9 µM; inhibition [6]: Active
CCCCCC(=O)NC1=NCCS1	inactive	inactive	
CCCCCCCCC(=O)Nc1ccc(C2=NCCN2)cc1	inactive		inhibition [7]: 14%; inhibition [6]: 49%
CCCCCCOc1ccccc1	inactive	inactive	
CCCCCCOc1ccc(C2=NCCO2)cc1	inactive		IC50 [1]: 97.4 µM; inhibition [6]: Active
CCCCCCCCCOc1ccc(C2=NCCCN2)cc1	inactive		Activity [8]: Toxic
CCCCCCCCC(=O)NC1=NCCS1	inactive	inactive	
CCCCCC(=O)Nc1ccc(C2=NCCN2)cc1	inactive		inhibition [9]: Active
CCCCCCCCCC(=O)NC1CCOC1=O (stereo unspecified)	inactive		inhibition [10]: 51%
COc1ccc(NC(=O)COc2ccc(C3=NCCN3)cc2)cc1	inactive		IC50 [1]: 341 µM; inhibition [2]: Active
CCCCCCCCCOc1ccc(C2=NCCN2)cc1	inactive		Activity [11]: Toxic; Activity [12]: Toxic
